The term IC50 denotes the concentration at which inhibition is half-maximal. Read a high IC50 as weaker potency.

The source of these data is patent US9221761B2, “Method for inhibition of deubiquitinating activity” (Vivolux AB, priority 2011, dated 2015).

Test [1] deals with HCT116. The test is described as follows: FMCA (Fluorometric Microculture Cytotoxicity Assay) cytotoxicity. The format is cell-based. To be noted: 72 hours of continuous compound exposure. As to the method:
FIGS. 1a to 1o are diagrams illustrating induction of dose-dependent cytotoxicity after 72 hours of continuous compound exposure to the reporter cell line HCT-116 by embodiments of the compound of the invention, as measured FMCA (Fluorometric Microculture Cytotoxicity Assay), as well as absence of such induction by structurally related compounds not comprised by the invention. Treated cells were compared to untreated controls (survival index);
Determination of cell apoptosis and viability. For determination of apoptosis parental HCT-116 p53+/+ cells are treated with the increasing doses of the compound of the invention for 24 h. […] HCT-116 cells are seeded in 96-well microtiter plates at 10,000 cells per well and incubated overnight. Cells are treated with indicated drug for 24 h. At the end of the incubation period, NP40 is added to the tissue culture medium to 0.1% and 25 μl of the content of each well was assayed using the M30-Apoptosense® ELISA as previously described (31). Cell viability is determined by measuring acid phosphatase activity or using the FMCA method (32). For the acid phosphatase activity cells are seeded at 5000 cells per well in 96-well culture plates and incubated for 12 h at 37° C. Compounds are added to the cells in growth media and incubated for 72 h at 37° C. Cells are washed with 200 μl warm PBS. 100 μl of para-nitrophenyl phosphate (pNPP, 2 mg/ml) in Na acetate buffer pH 5 (NaAc 0.1 M, 0.1% Triton-X-100) is added per well. Cells are incubated for 2 h after which reaction was stopped by addition of 1N NaOH. Absorbance is measured at 405 nm. The dose-dependent cytotoxicity of a number of embodiments of the compound of the invention is illustrated in FIGS. 1a-1o.
For the FMCA assay cells are seeded in the drug-prepared 384-well plates using the pipetting robot Precision 2000 (Bio-Tek Instruments Inc., Winooski, Vt.). The plates are incubated for 72 h and then transferred to an integrated HTS SAIGAN Core System consisting of an ORCA robot (Beckman Coulter) with CO2 incubator (Cytomat 2C, Kendro, Sollentuna, Sweden), dispenser module (Multidrop 384, Titertek, Huntsville, Ala.), washer module (ELx 405, Bio-Tek Instruments Inc), delidding station, plate hotels, barcode reader (Beckman Coulter), liquid handler (Biomek 2000, Beckman Coulter) and a multipurpose reader (FLUOstar Optima, BMG Labtech GmbH, Offenburg, Germany) for automated FMCA. Survival index (SI) is defined as the fluorescence of test wells in percentage of controls with blank values subtracted.
FIGS. 3b, 3d, 3f are diagrams illustrating the cytotoxicity of compounds of the invention nos. 1546, 1547, and 1570 with a 7-membered ring moiety in comparison to structurally corresponding compounds not comprised by the invention with a 6-membered ring moiety. Their induction of dose-dependent cytotoxicity was determined after 72 hours of continuous compound exposure to the reporter cell line HCT-116. Treated cells were compared with untreated controls. Cytotoxicity is visualized as survival index (SI) over the range of about 90% SI to about 0% SI in dependence on compound concentration.

The subject of test [2] is MelJuSo Ub-YFP reporter cell line. Description: Proteasome inhibition in reporter cell line, YFP accumulation in IncuCyte-FLR. Type of test: cell-based. The following applies: YFP accumulation measured for 48 hours; for MeJuSo-UB, lowest effective conc.: Table 2; for MeJuSo-UB, IncuCyte lowest effective conc.: Table 1. An excerpt:
Cell culture. MCF7 cells are maintained in MEM/10% fetal calf serum. HCT-116 p53+/+, p53−/−, Bcl-2+/+, PUMA−/− and BAX−/− cells are maintained in McCoy's 5A modified medium/10% fetal calf serum. The HCT-116 p53+/+, p53−/−, PUMA−/− and BAX−/− are generated as described (25). The HCT-116 Bcl-2+/+ cell line was generated by transfecting parental HCT-116 p53+/+ cells with pCEP4 Bcl-2 (Addgene plasmid 16461) (26) and isolating high expression clones. FaDu and LLC3 cells are maintained in DMEM high glucose medium supplemented with 10% fetal calf serum, Na pyruvate, Hepes and non-essential amino acids. 4T1.12B carcinoma cells are maintained in RPMI medium supplemented with 10% fetal calf serum. The proteasome reporter cell line MelJuSo Ub-YFP was generated as described (12). Cells were maintained in Dulbecco's Modified Eagle's Medium/10% fetal calf serum. […] The retinal epithelial cell line was generated as described (28). All cells are maintained at 37° C. in 5% CO2.
The compound of the invention induces proteasome inhibition. The reporter cell line MelJuSo Ub-YFP, which is engineered to accumulate yellow fluorescent protein (YFP) upon proteasome inhibition (12), was used for compound evaluation. The accumulation of YFP was measured for 48 hours in an IncuCyte-FLR system (Essen Bioscience, Essen, UK), which is an automated fluorescence microscope. Numbers of positive cells per field were used as a measure of proteasome inhibition.

`CC(=O)OCCC(=O)N1CCC(=Cc2ccc(F)c([N+](=O)[O-])c2)C(=O)C(=Cc2ccc(F)c([N+](=O)[O-])c2)C1` [Compound 1662]: the IC50 in test [1] (Table 2) was found to be 2.1 µM. The “MeJuSo-UB, lowest effective conc.” value in test [2] stood at 1 µM.

In test [1] (Table 1), `CN1CCC(=Cc2ccc(Cl)cc2)C(=O)C(=Cc2ccc(F)cc2)C1` [Compound 1589] gave a 50% inhibitory concentration (IC50) of 2.5 µM. For the same compound, the “MeJuSo-UB, IncuCyte lowest effective conc.” value in test [2] turned out to be 1 µM.

Take `O=C1C(=Cc2ccc([N+](=O)[O-])cc2)CCNCC1=Cc1ccc([N+](=O)[O-])cc1` [Compound 1537]: half-maximal inhibition in test [1] (Table 1) (IC50) required 4.1 µM.

Compound `C=CC(=O)N1CCC(=Cc2cccc([N+](=O)[O-])c2)C(=O)C(=Cc2cccc([N+](=O)[O-])c2)C1` [Compound 1572] gave an IC50 in test [1] (Table 2) of 2.5 µM. For the same compound, in test [2], the “MeJuSo-UB, lowest effective conc.” value is 0.5 µM.

Turning to `O=C1C(=Cc2ccc(Cl)c(C(F)(F)F)c2)CCN(C(=O)Cc2cccnc2)CC1=Cc1ccc(Cl)c(C(F)(F)F)c1` [Compound 1655], in test [1] (Table 2), the IC50 came to 1 µM. In test [2], the “MeJuSo-UB, lowest effective conc.” value came out at 1 µM.

As for `N#Cc1ccc(C=C2CCNCC(=Cc3ccc(C#N)cc3)C2=O)cc1` [Compound 1625], half-maximal inhibition in test [1] (Table 1) (IC50) was put at 0.9 µM. Besides, in test [2], the “MeJuSo-UB, IncuCyte lowest effective conc.” value came out at 0.5 µM.

Compound `O=C(Cc1ccccn1)C(=O)N1CCC(=Cc2ccc(Cl)c(C(F)(F)F)c2)C(=O)C(=Cc2ccc(Cl)c(C(F)(F)F)c2)C1` [Compound 1658] returned an IC50 in test [1] (Table 2) of 0.8 µM. For the same compound, the “MeJuSo-UB, lowest effective conc.” value in test [2] was 0.5 µM.

In test [1] (Table 2), “(3E,5E)-1-acetyl-5-[(4-fluorophenyl)methylidene]-3-[(4-ethoxyphenyl)methylidene]azepan-4-one [Compound 1579]” yielded an IC50 of 5.9 µM. Moreover, the “MeJuSo-UB, lowest effective conc.” value in test [2] is 8 µM.

Consider `CC(=O)N1CCC(=Cc2ccc(F)c(Cl)c2)C(=O)C(=Cc2ccc(F)c(Cl)c2)C1` [Compound 1631], for which the IC50 in test [1] (Table 2) was 1 µM. Further, the “MeJuSo-UB, lowest effective conc.” value in test [2] came to 32 µM.

On to `CC(=O)OCC(=O)N1CC/C(=C\c2ccc(Cl)c(C(F)(F)F)c2)C(=O)/C(=C/c2ccc(Cl)c(C(F)(F)F)c2)C1` [Compound 1656], for which, in test [1] (Table 2), the IC50 was determined as 0.7 µM. For the same compound, the “MeJuSo-UB, lowest effective conc.” value in test [2] turned out to be 0.5 µM.

Regarding `CN1CCC(=Cc2ccc([N+](=O)[O-])cc2)C(=O)C(=Cc2ccc(F)cc2)C1` [Compound 1593], it took 2.9 µM to reach half-maximal inhibition in test [1] (Table 1) (IC50). Moreover, the “MeJuSo-UB, IncuCyte lowest effective conc.” value in test [2] was 1 µM.

In the case of `O=C1C(=Cc2ccc(Cl)cc2)CCNCC1=Cc1ccc([N+](=O)[O-])cc1` [Compound 1584], 1.8 µM corresponded to half-maximal inhibition in test [1] (Table 1) (IC50). Also, in test [2], the “MeJuSo-UB, IncuCyte lowest effective conc.” value was found to be 2 µM.

In test [1] (Table 2), `CC(=O)N1CCC(=Cc2ccc([N+](=O)[O-])cc2)C(=O)C(=Cc2ccc([N+](=O)[O-])cc2)C1` [Compound 1567] showed a 50% inhibitory concentration (IC50) of 0.6 µM. The “MeJuSo-UB, lowest effective conc.” value in test [2] came out at 0.5 µM.

`CC(=O)OCCC(=O)N1CCC(=Cc2ccc(Cl)cc2)C(=O)C(=Cc2ccc(Cl)cc2)C1` [Compound 1633] yielded an IC50 in test [1] (Table 2) of 2.2 µM. Also, in test [2], the “MeJuSo-UB, lowest effective conc.” value was determined as 4 µM.

Consider `CC(=O)OCC(=O)N1CC/C(=C\c2cc(F)c(F)c(F)c2)C(=O)/C(=C/c2cc(F)c(F)c(F)c2)C1` [Compound 1651], for which inhibition in test [1] (Table 2) was half-maximal at 0.8 µM (IC50). The “MeJuSo-UB, lowest effective conc.” value in test [2] is 0.5 µM.

As for `COc1ccc(C=C2CN(C)CCC(=Cc3ccc([N+](=O)[O-])cc3)C2=O)cc1` [Compound 1588], the IC50 in test [1] (Table 1) is 3.1 µM. The “MeJuSo-UB, IncuCyte lowest effective conc.” value in test [2] stood at 1 µM.

Compound `O=C1C(=Cc2ccc([N+](=O)[O-])cc2)CCNCC1=Cc1ccc(Cl)cc1` [Compound 1591] registered an IC50 in test [1] (Table 1) of 0.9 µM. Also, in test [2], the “MeJuSo-UB, IncuCyte lowest effective conc.” value came out at 0.5 µM.

As to `O=C1/C(=C/c2ccccc2)CCNC/C1=C\c1ccccc1` [Compound 1516, (3E,5E)-3,5-Bis(phenylmethylidene)azepan-4-one], the “MeJuSo-UB, IncuCyte lowest effective conc.” value in test [2] stood at 1.2 µM.

In test [1] (Table 1), `CN1CCC(=Cc2ccc(C(F)(F)F)c(F)c2)C(=O)C(=Cc2ccc(C(F)(F)F)c(F)c2)C1` [Compound 1624] showed a concentration for half-maximal inhibition (IC50) of 1.8 µM. Also, the “MeJuSo-UB, IncuCyte lowest effective conc.” value in test [2] is 1 µM.

In test [1] (Table 1), `O=C1C(=Cc2ccc([N+](=O)[O-])cc2)CCNCC1=Cc1ccc(F)cc1` [Compound 1596] returned an IC50 of 2.6 µM. Also, the “MeJuSo-UB, IncuCyte lowest effective conc.” value in test [2] turned out to be 2 µM.

As to `O=C1/C(=C/c2ccc(F)c([N+](=O)[O-])c2)CCN(C(=O)Cc2ccccn2)C/C1=C\c1ccc(F)c([N+](=O)[O-])c1` [Compound 1648], the IC50 in test [1] (Table 2) amounted to 0.8 µM. Moreover, in test [2], the “MeJuSo-UB, lowest effective conc.” value turned out to be 0.5 µM.

For `O=C1C(=Cc2ccc(Cl)cc2)CCN(C(=O)c2cccnc2)CC1=Cc1ccc(Cl)cc1` [Compound 1637], the IC50 in test [1] (Table 2) was 2.1 µM. Besides, in test [2], the “MeJuSo-UB, lowest effective conc.” value was determined as 2 µM.

In test [1] (Table 2), `O=C1/C(=C/c2ccc(C(F)(F)F)cc2)CCN(C(=O)Cc2ccccn2)C/C1=C\c1ccc(C(F)(F)F)cc1` [Compound 1644] displayed an IC50 of 1.4 µM. Also, the “MeJuSo-UB, lowest effective conc.” value in test [2] was found to be 1 µM.

In the case of `CN1CCC(=Cc2cccc([N+](=O)[O-])c2)C(=O)C(=Cc2cccc([N+](=O)[O-])c2)C1` [Compound 1566], the IC50 in test [1] (Table 1) stood at 2.3 µM. Moreover, the “MeJuSo-UB, IncuCyte lowest effective conc.” value in test [2] stood at 0.5 µM.

With `C=CC(=O)N1CCC(=Cc2ccc(F)cc2)C(=O)C(=Cc2ccc(F)cc2)C1` [Compound 1568], the IC50 in test [1] (Table 2) amounted to 1.5 µM. Further, the “MeJuSo-UB, lowest effective conc.” value in test [2] was 2 µM.

Take `O=C1C(=Cc2ccccc2[N+](=O)[O-])CCNCC1=Cc1ccccc1[N+](=O)[O-]` [Compound 1536]: the IC50 in test [1] (Table 1) worked out at 6.9 µM.

The compound `O=C1C(=Cc2cccc([N+](=O)[O-])c2)CCNCC1=Cc1cccc([N+](=O)[O-])c1` [Compound 1535] had an IC50 in test [1] (Table 1) of 5.9 µM.

As for `O=C1/C(=C/c2cccc([N+](=O)[O-])c2)CCNC/C1=C\c1ccccc1` [Compound 1560, (3E,5E)-5-[(3-nitrophenyl)methylidene]-3-(phenylmethylidene)azepan-4-one], the IC50 in test [1] (Homo sapiens, HCT-116, Table 1) is 1 µM.

Consider `O=C(O)C(F)(F)F.O=C1/C(=C/c2ccc([N+](=O)[O-])cc2)CCN(C(=O)[C@H]2CCCN2)C/C1=C\c1ccc([N+](=O)[O-])cc1` [Compound 1505], for which, in test [2], the “MeJuSo-UB, lowest effective conc.” value was determined as 16 µM.

In test [1] (Table 2), `O=C(O)C(F)(F)F.O=C1/C(=C/c2ccc([N+](=O)[O-])cc2)CCN(C(=O)[C@H]2CCCN2)C/C1=C\c1ccc([N+](=O)[O-])cc1` [Compound 1505, (2R)-2-{[(3E,5E)-3,5-bis[(4-nitrophenyl)methylidene]-4-oxoazepan-1-carbonyl}pyrrolidinium trifluoroacetate] returned an IC50 of 5.2 µM. In other words, the single-digit micromolar range.

Regarding `O=C1C(=Cc2ccc(Cl)cc2)CCN(C(=O)C2CCC2)CC1=Cc1ccc(Cl)cc1` [Compound 1527], the “MeJuSo-UB, lowest effective conc.” value in test [2] was determined as 2 µM.

For `O=C1/C(=C/c2ccc(Cl)cc2)CCNC/C1=C\c1ccc(Cl)cc1` [Compound 1518, (3E,5E)-3,5-bis[(4-chlorophenyl)methylidene]azepan-4-one], the “MeJuSo-UB, IncuCyte lowest effective conc.” value in test [2] was 1.6 µM.
